Source: ChEMBL document CHEMBL1201862, “PubChem BioAssay data set” (2004)
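Assay format: 96-well plates, 48-hour exposure. Abbreviation: GI50, concentration required for 50% inhibition of growth.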 Calls of active or inactive are those of the source. Cut-off read from the data, not from the text of the source: active = GI50 up to about 1.1 µM and inactive = higher.

What was measured:
Assay in all cases: NCI anticancer screen, dose series, 48 h
IGROV-1 = tested on: IGROV-1
NCI-H522 = tested on: NCI-H522
NCI-H460 = tested on: NCI-H460
A498 = tested on: A498
COLO 205 = tested on: COLO 205
OVCAR-8 = tested on: OVCAR-8
UO-31 = tested on: UO-31
MOLT-4 = tested on: MOLT-4
SR = tested on: SR
K562 = tested on: K562
CAKI-1 = tested on: CAKI-1
786-0 = tested on: 786-0
SNB-19 = tested on: SNB-19
OVCAR-4 = tested on: OVCAR-4
MDA-MB-435 = tested on: MDA-MB-435
M14 = tested on: M14
MDA-N = tested on: MDA-N
DU-145 = tested on: DU-145
SK-MEL-5 = tested on: SK-MEL-5
SW-620 = tested on: SW-620
HT-29 = tested on: HT-29
OVCAR-5 = tested on: OVCAR-5
SNB-75 = tested on: SNB-75
Malme-3M = tested on: Malme-3M
UACC-62 = tested on: UACC-62
SN12C = tested on: SN12C
HCT-116 = tested on: HCT-116
TK-10 = tested on: TK-10
NCI-H23 = tested on: NCI-H23
SF-295 = tested on: SF-295
SK-MEL-28 = tested on: SK-MEL-28
RXF 393 = tested on: RXF 393
BT-549 = tested on: BT-549
SK-OV-3 = tested on: SK-OV-3
OVCAR-3 = tested on: OVCAR-3
HOP-62 = tested on: HOP-62
PC-3 = tested on: PC-3
KM12 = tested on: KM12
UACC-257 = tested on: UACC-257
CCRF-CEM = tested on: CCRF-CEM
T47D = tested on: T47D
HCC 2998 = tested on: HCC 2998
LOX IMVI = tested on: LOX IMVI
RPMI-8226 = tested on: RPMI-8226
SK-MEL-2 = tested on: SK-MEL-2
A549 = tested on: A549
MDA-MB-231 = tested on: MDA-MB-231
NCI-H226 = tested on: NCI-H226
NCI/ADR-RES = tested on: NCI/ADR-RES
ACHN = tested on: ACHN
SF-268 = tested on: SF-268
U-251 = tested on: U-251
HCT-15 = tested on: HCT-15
Hs-578T = tested on: Hs-578T
HOP-92 = tested on: HOP-92
EKVX = tested on: EKVX
MCF7 = tested on: MCF7

For `O=c1c2sc3nc(NCCN4CCCCC4)ncc3c2ncn1-c1ccccc1`, the GI50 (IGROV-1) was 40 µM (inactive), the GI50 (NCI-H522) was 41 µM (inactive) and the GI50 (NCI-H460) was 55.6 µM (inactive). The GI50 (A498) was > 100 µM (inactive), the GI50 (COLO 205) was 41.3 µM (inactive) and the GI50 (OVCAR-8) was 45.5 µM (inactive). The GI50 (UO-31) was 19.7 µM (inactive), the GI50 (MOLT-4) was 67.8 µM (inactive) and the GI50 (SR) was > 100 µM (inactive). The GI50 (K562) was 47.1 µM (inactive), the GI50 (CAKI-1) was 33 µM (inactive) and the GI50 (786-0) was 80.7 µM (inactive). The GI50 (SNB-19) was 67.9 µM (inactive), the GI50 (OVCAR-4) was > 100 µM (inactive) and the GI50 (MDA-MB-435) was 72.6 µM (inactive). For the same compound, the GI50 (M14) was 19.6 µM (inactive), the GI50 (MDA-N) was 80.5 µM (inactive) and the GI50 (DU-145) was > 100 µM (inactive). The GI50 (SK-MEL-5) was 19.2 µM (inactive), the GI50 (SW-620) was 46.7 µM (inactive) and the GI50 (HT-29) was 30.5 µM (inactive). The GI50 (OVCAR-5) was > 100 µM (inactive), the GI50 (SNB-75) was 45.3 µM (inactive) and the GI50 (Malme-3M) was 20.1 µM (inactive). For the same compound, the GI50 (UACC-62) was 82.2 µM (inactive), the GI50 (SN12C) was > 100 µM (inactive) and the GI50 (HCT-116) was 33.1 µM (inactive). For the same compound, the GI50 (TK-10) was 48.3 µM (inactive), the GI50 (NCI-H23) was > 100 µM (inactive) and the GI50 (SF-295) was 61.8 µM (inactive). The GI50 (SK-MEL-28) was 55.2 µM (inactive), the GI50 (RXF 393) was 20.6 µM (inactive) and the GI50 (BT-549) was 85.9 µM (inactive). For the same compound, the GI50 (SK-OV-3) was > 100 µM (inactive), the GI50 (OVCAR-3) was > 100 µM (inactive) and the GI50 (HOP-62) was 42.1 µM (inactive). The GI50 (PC-3) was 59.3 µM (inactive), the GI50 (KM12) was > 100 µM (inactive) and the GI50 (UACC-257) was 31.3 µM (inactive). The GI50 (CCRF-CEM) was 44.7 µM (inactive), the GI50 (T47D) was 35.8 µM (inactive) and the GI50 (HCC 2998) was > 100 µM (inactive). For the same compound, the GI50 (LOX IMVI) was 17.3 µM (inactive), the GI50 (RPMI-8226) was 80.4 µM (inactive) and the GI50 (SK-MEL-2) was 34.2 µM (inactive). For the same compound, the GI50 (A549) was 40.6 µM (inactive), the GI50 (MDA-MB-231) was > 100 µM (inactive) and the GI50 (NCI-H226) was 93.8 µM (inactive). The GI50 (NCI/ADR-RES) was 62.5 µM (inactive), the GI50 (ACHN) was 42 µM (inactive) and the GI50 (SF-268) was 60 µM (inactive). The GI50 (U-251) was 44.4 µM (inactive), the GI50 (HCT-15) was 40.4 µM and the GI50 (Hs-578T) was 36.4 µM (inactive). For the same compound, the GI50 (HOP-92) was 27.3 µM (inactive).
`NC(CC1=CCC=CC1)C(=O)O` (stereo not drawn) was tested, and the GI50 (IGROV-1) was 67.8 µM (inactive), the GI50 (NCI-H460) was 59.3 µM (inactive) and the GI50 (A498) was > 100 µM (inactive). The GI50 (COLO 205) was 38 µM (inactive), the GI50 (OVCAR-8) was 67.1 µM (inactive) and the GI50 (UO-31) was > 100 µM (inactive). For the same compound, the GI50 (MOLT-4) was 62.2 µM (inactive), the GI50 (SR) was > 10 µM (inactive) and the GI50 (K562) was 28.9 µM (inactive). The GI50 (CAKI-1) was > 100 µM (inactive), the GI50 (786-0) was > 100 µM (inactive) and the GI50 (SNB-19) was > 100 µM (inactive). The GI50 (OVCAR-4) was > 100 µM (inactive), the GI50 (MDA-MB-435) was 71.8 µM (inactive) and the GI50 (M14) was 80.2 µM (inactive). For the same compound, the GI50 (MDA-N) was 59.2 µM (inactive), the GI50 (DU-145) was > 100 µM (inactive) and the GI50 (SK-MEL-5) was > 100 µM (inactive). For the same compound, the GI50 (SW-620) was > 100 µM (inactive), the GI50 (HT-29) was 61.9 µM (inactive) and the GI50 (OVCAR-5) was > 100 µM (inactive). The GI50 (SNB-75) was 99.5 µM (inactive), the GI50 (UACC-62) was > 100 µM (inactive) and the GI50 (SN12C) was > 100 µM (inactive). For the same compound, the GI50 (HCT-116) was 55.1 µM (inactive), the GI50 (TK-10) was > 100 µM (inactive) and the GI50 (NCI-H23) was > 100 µM (inactive). For the same compound, the GI50 (SF-295) was 60.3 µM (inactive), the GI50 (SK-MEL-28) was 80.5 µM (inactive) and the GI50 (RXF 393) was 70.5 µM (inactive). The GI50 (BT-549) was > 100 µM (inactive), the GI50 (SK-OV-3) was 98.2 µM (inactive) and the GI50 (OVCAR-3) was 51.5 µM (inactive). The GI50 (HOP-62) was > 100 µM (inactive), the GI50 (PC-3) was 45.7 µM (inactive) and the GI50 (KM12) was 68.2 µM (inactive). The GI50 (EKVX) was > 100 µM (inactive), the GI50 (UACC-257) was > 100 µM (inactive) and the GI50 (CCRF-CEM) was 62.8 µM (inactive). For the same compound, the GI50 (T47D) was > 100 µM (inactive), the GI50 (HCC 2998) was > 100 µM (inactive) and the GI50 (LOX IMVI) was 91.8 µM (inactive). The GI50 (RPMI-8226) was 9.2 µM (inactive), the GI50 (SK-MEL-2) was 53.7 µM (inactive) and the GI50 (A549) was 74.5 µM (inactive). The GI50 (MDA-MB-231) was > 100 µM (inactive), the GI50 (ACHN) was > 100 µM (inactive) and the GI50 (SF-268) was > 100 µM (inactive). For the same compound, the GI50 (U-251) was 64.4 µM (inactive), the GI50 (HCT-15) was 57.9 µM and the GI50 (Hs-578T) was 50.6 µM (inactive). For the same compound, the GI50 (MCF7) was 47.4 µM (inactive) and the GI50 (HOP-92) was > 100 µM (inactive).
